IC50 data for one compound are collected here from paper PMC7497240 (Chembiochem, 2020).

The assay deals with T1, ABCG2 (Homo sapiens, UniProt Q9UNQ0).
T1 sequence (Q9UNQ0 1-655): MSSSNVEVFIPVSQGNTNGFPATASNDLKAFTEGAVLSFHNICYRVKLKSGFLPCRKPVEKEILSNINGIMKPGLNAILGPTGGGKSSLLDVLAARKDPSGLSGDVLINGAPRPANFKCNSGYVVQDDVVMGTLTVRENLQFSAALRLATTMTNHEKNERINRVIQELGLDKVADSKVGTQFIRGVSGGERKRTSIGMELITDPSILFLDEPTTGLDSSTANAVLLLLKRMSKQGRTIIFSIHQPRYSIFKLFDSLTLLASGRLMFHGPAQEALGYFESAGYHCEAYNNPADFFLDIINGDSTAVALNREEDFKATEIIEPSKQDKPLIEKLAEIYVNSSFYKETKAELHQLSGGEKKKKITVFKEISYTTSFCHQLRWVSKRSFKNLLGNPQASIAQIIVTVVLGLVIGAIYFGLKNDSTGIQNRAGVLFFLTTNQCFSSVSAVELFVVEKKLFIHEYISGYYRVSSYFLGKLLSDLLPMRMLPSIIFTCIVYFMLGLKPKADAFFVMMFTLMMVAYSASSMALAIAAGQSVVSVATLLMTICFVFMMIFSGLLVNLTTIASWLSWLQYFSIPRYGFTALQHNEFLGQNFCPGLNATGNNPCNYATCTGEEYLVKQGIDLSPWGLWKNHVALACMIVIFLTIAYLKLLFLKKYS
Kind of assay: Hoechst […] accumulation assay in ABCG2-transfected MDCK II BCRP cells. The assay is classed as cell-based.

pIC50: −log10 of the molar value.

The term pIC50 denotes −log10 of the IC50, conventionally taken in molar units. A low value points to a large IC50. As for `O=C1NC(=O)c2c1c1c3ccccc3[nH]c1c1[nH]c3ccccc3c21` [compound 8, arcyriaflavin A], the pIC50 was 5.05.
